Assay results reported in PMC6109843, “Novel Quinazolinone Inhibitors of ALK2 Flip between Alternate Binding Modes: Structure–Activity Relationship, Structural Characterization, Kinase Profiling, and Cellular Proof of Concept” (Journal of Medicinal Chemistry, 2018).

Columns and labels:
Assay in all cases: DiscoverX scanEDGE kinase panel
Format in all cases: binding
Settings in all cases: Cmpd Conc 1000 nM, read-out: % Ctrl
TSSK1B = biological target: T1, TSSK1B (Homo sapiens, UniProt Q9BXA7)
T1 construct: purchased DiscoverX (DiscoveRx) KINOMEscan scanEDGE / KdELECT
Text: (§1) We hypothesized that inhibitors of the normal and flipped modes would display distinct selectivity profiles.
(§2) 1. 16 and 21 kinome selectivity data
(§3) (P – phosphorylated; nP – nonphosphorylated; % Ctrl values show the % of DNAEtagged
(§4) kinase which was not displaced from a solid supported ligand by a test compound relative to
(§5) untreated control, quantified by qPCR).
(§6) Please note: ALKs 1, 2, 3, 4, 5 and 6 are listed by their gene symbols: ACVRL1 (ALK1), ACVR1
(§7) (ALK2), BMPR1A (ALK3), ACVR1B (ALK4), TGFBR1 (ALK5) and BMPR1B (ALK6)
(§8) Cmpd DiscoverX Gene Symbol Entrez Gene Symbol % Ctrl Cmpd Conc (nM)

SIK2 = biological target: T2, SIK2 (Homo sapiens, UniProt Q9H0K1)
T2 construct: purchased DiscoverX (DiscoveRx) KINOMEscan scanEDGE / KdELECT
Text: as §1, §2, §3, §4, §5, §6, §7, §8

AURKB = biological target: T3, AURKB (Homo sapiens, UniProt Q96GD4)
T3 construct: purchased DiscoverX (DiscoveRx) KINOMEscan scanEDGE / KdELECT
Text: as §1, §2, §3, §4, §5, §6, §7, §8

MAP3K4 = biological target: T4, MAP3K4 (Homo sapiens, UniProt Q9Y6R4)
T4 construct: purchased DiscoverX (DiscoveRx) KINOMEscan scanEDGE / KdELECT
Text: as §1, §2, §3, §4, §5, §6, §7, §8

ERBB4 = biological target: T5, ERBB4 (Homo sapiens, UniProt Q15303)
T5 construct: purchased DiscoverX (DiscoveRx) KINOMEscan scanEDGE / KdELECT
Text: as §1, §2, §3, §4, §5, §6, §7, §8

JNK1 = biological target: T6, JNK1 (Homo sapiens, UniProt P45983)
T6 construct: purchased DiscoverX (DiscoveRx) KINOMEscan scanEDGE / KdELECT
Text: as §1, §2, §3, §4, §5, §6, §7, §8

PIK3CA = biological target: T7, PIK3CA (Homo sapiens, UniProt P42336)
T7 construct: purchased DiscoverX (DiscoveRx) KINOMEscan scanEDGE / KdELECT
Text: as §1, §2, §3, §4, §5, §6, §7, §8

ERK1 = biological target: T8, ERK1 (Homo sapiens, UniProt P27361)
T8 construct: purchased DiscoverX (DiscoveRx) KINOMEscan scanEDGE / KdELECT
Text: as §1, §2, §3, §4, §5, §6, §7, §8

AKT2 = biological target: T9, AKT2 (Homo sapiens, UniProt P31751)
T9 construct: purchased DiscoverX (DiscoveRx) KINOMEscan scanEDGE / KdELECT
Text: as §1, §2, §3, §4, §5, §6, §7, §8

BMPR1A (ALK3) = biological target: T10, BMPR1A (ALK3) (Homo sapiens, UniProt P36894)
T10 construct: purchased DiscoverX (DiscoveRx) KINOMEscan scanEDGE / KdELECT
Text: as §1, §2, §3, §4, §5, §6, §7, §8

FGFR3 = biological target: T11, FGFR3 (Homo sapiens, UniProt P22607)
T11 construct: purchased DiscoverX (DiscoveRx) KINOMEscan scanEDGE / KdELECT
Text: as §1, §2, §3, §4, §5, §6, §7, §8

EGFR = biological target: T12, EGFR (Homo sapiens, UniProt P00533)
T12 construct: purchased DiscoverX (DiscoveRx) KINOMEscan scanEDGE / KdELECT
Text: as §1, §2, §3, §4, §5, §6, §7, §8

MLK1 = biological target: T13, MLK1 (Homo sapiens, UniProt P80192)
T13 construct: purchased DiscoverX (DiscoveRx) KINOMEscan scanEDGE / KdELECT
Text: as §1, §2, §3, §4, §5, §6, §7, §8

MEK2 = biological target: T14, MEK2 (Homo sapiens, UniProt P36507)
T14 construct: purchased DiscoverX (DiscoveRx) KINOMEscan scanEDGE / KdELECT
Text: as §1, §2, §3, §4, §5, §6, §7, §8

ZAP70 = biological target: T15, ZAP70 (Homo sapiens, UniProt P43403)
T15 construct: purchased DiscoverX (DiscoveRx) KINOMEscan scanEDGE / KdELECT
Text: as §1, §2, §3, §4, §5, §6, §7, §8

KIT(V559D,T670I) = biological target: T16, KIT(V559D,T670I) (Homo sapiens, UniProt P10721, T670I/V559D)
T16 construct: purchased DiscoverX (DiscoveRx) KINOMEscan scanEDGE / KdELECT
Text: as §1, §2, §3, §4, §5, §6, §7, §8

CHEK1 = biological target: T17, CHEK1 (Homo sapiens, UniProt O14757)
T17 construct: purchased DiscoverX (DiscoveRx) KINOMEscan scanEDGE / KdELECT
Text: as §1, §2, §3, §4, §5, §6, §7, §8

PAK2 = biological target: T18, PAK2 (Homo sapiens, UniProt Q13177)
T18 construct: purchased DiscoverX (DiscoveRx) KINOMEscan scanEDGE / KdELECT
Text: as §1, §2, §3, §4, §5, §6, §7, §8

PIK3C2B = biological target: T19, PIK3C2B (Homo sapiens, UniProt O00750)
T19 construct: purchased DiscoverX (DiscoveRx) KINOMEscan scanEDGE / KdELECT
Text: as §1, §2, §3, §4, §5, §6, §7, §8

DCAMKL1 = biological target: T20, DCAMKL1 (Homo sapiens, UniProt O15075)
T20 construct: purchased DiscoverX (DiscoveRx) KINOMEscan scanEDGE / KdELECT
Text: as §1, §2, §3, §4, §5, §6, §7, §8

KIT(D816H) = biological target: T21, KIT(D816H) (Homo sapiens, UniProt P10721, D816H)
T21 construct: purchased DiscoverX (DiscoveRx) KINOMEscan scanEDGE / KdELECT
Text: as §1, §2, §3, §4, §5, §6, §7, §8

PLK1 = biological target: T22, PLK1 (Homo sapiens, UniProt P53350)
T22 construct: purchased DiscoverX (DiscoveRx) KINOMEscan scanEDGE / KdELECT
Text: as §1, §2, §3, §4, §5, §6, §7, §8

IKKEalpha = biological target: T23, IKKEalpha (Homo sapiens, UniProt O15111)
T23 construct: purchased DiscoverX (DiscoveRx) KINOMEscan scanEDGE / KdELECT
Text: as §1, §2, §3, §4, §5, §6, §7, §8

MET = biological target: T24, MET (Homo sapiens, UniProt P08581)
T24 construct: purchased DiscoverX (DiscoveRx) KINOMEscan scanEDGE / KdELECT
Text: as §1, §2, §3, §4, §5, §6, §7, §8

PLK4 = biological target: T25, PLK4 (Homo sapiens, UniProt O00444)
T25 construct: purchased DiscoverX (DiscoveRx) KINOMEscan scanEDGE / KdELECT
Text: as §1, §2, §3, §4, §5, §6, §7, §8

FYN = biological target: T26, FYN (Homo sapiens, UniProt P06241)
T26 construct: purchased DiscoverX (DiscoveRx) KINOMEscan scanEDGE / KdELECT
Text: as §1, §2, §3, §4, §5, §6, §7, §8

AXL = biological target: T27, AXL (Homo sapiens, UniProt P30530)
T27 construct: purchased DiscoverX (DiscoveRx) KINOMEscan scanEDGE / KdELECT
Text: as §1, §2, §3, §4, §5, §6, §7, §8

JNK3 = biological target: T28, JNK3 (Homo sapiens, UniProt P53779)
T28 construct: purchased DiscoverX (DiscoveRx) KINOMEscan scanEDGE / KdELECT
Text: as §1, §2, §3, §4, §5, §6, §7, §8

MINK = biological target: T29, MINK (Homo sapiens, UniProt Q8N4C8)
T29 construct: purchased DiscoverX (DiscoveRx) KINOMEscan scanEDGE / KdELECT
Text: as §1, §2, §3, §4, §5, §6, §7, §8

DYRK1B = biological target: T30, DYRK1B (Homo sapiens, UniProt Q9Y463)
T30 construct: purchased DiscoverX (DiscoveRx) KINOMEscan scanEDGE / KdELECT
Text: as §1, §2, §3, §4, §5, §6, §7, §8

[1] = biological target: T31, RSK2(Kin.Dom.1ENEterminal) (Homo sapiens, UniProt P51812)
T31 construct: RSK2(Kin.Dom.1ENEterminal); purchased DiscoverX (DiscoveRx) KINOMEscan scanEDGE / KdELECT
Text: as §1, §2, §3, §4, §5, §6, §7, §8

PCTK1 = biological target: T32, PCTK1 (Homo sapiens, UniProt Q00536)
T32 construct: purchased DiscoverX (DiscoveRx) KINOMEscan scanEDGE / KdELECT
Text: as §1, §2, §3, §4, §5, §6, §7, §8

CDK2 = biological target: T33, CDK2 (Homo sapiens, UniProt P24941)
T33 construct: purchased DiscoverX (DiscoveRx) KINOMEscan scanEDGE / KdELECT
Text: as §1, §2, §3, §4, §5, §6, §7, §8

NEK7 = biological target: T34, NEK7 (Homo sapiens, UniProt Q8TDX7)
T34 construct: purchased DiscoverX (DiscoveRx) KINOMEscan scanEDGE / KdELECT
Text: as §1, §2, §3, §4, §5, §6, §7, §8

INSR = biological target: T35, INSR (Homo sapiens, UniProt P06213)
T35 construct: purchased DiscoverX (DiscoveRx) KINOMEscan scanEDGE / KdELECT
Text: as §1, §2, §3, §4, §5, §6, §7, §8

PDPK1 = biological target: T36, PDPK1 (Homo sapiens, UniProt O15530)
T36 construct: purchased DiscoverX (DiscoveRx) KINOMEscan scanEDGE / KdELECT
Text: as §1, §2, §3, §4, §5, §6, §7, §8

IKKEbeta = biological target: T37, IKKEbeta (Homo sapiens, UniProt O14920)
T37 construct: purchased DiscoverX (DiscoveRx) KINOMEscan scanEDGE / KdELECT
Text: as §1, §2, §3, §4, §5, §6, §7, §8

SRC = biological target: T38, SRC (Homo sapiens, UniProt P12931)
T38 construct: purchased DiscoverX (DiscoveRx) KINOMEscan scanEDGE / KdELECT
Text: as §1, §2, §3, §4, §5, §6, §7, §8

LCK = biological target: T39, LCK (Homo sapiens, UniProt P06239)
T39 construct: purchased DiscoverX (DiscoveRx) KINOMEscan scanEDGE / KdELECT
Text: as §1, §2, §3, §4, §5, §6, §7, §8

T24 sequence (P08581 25-1390): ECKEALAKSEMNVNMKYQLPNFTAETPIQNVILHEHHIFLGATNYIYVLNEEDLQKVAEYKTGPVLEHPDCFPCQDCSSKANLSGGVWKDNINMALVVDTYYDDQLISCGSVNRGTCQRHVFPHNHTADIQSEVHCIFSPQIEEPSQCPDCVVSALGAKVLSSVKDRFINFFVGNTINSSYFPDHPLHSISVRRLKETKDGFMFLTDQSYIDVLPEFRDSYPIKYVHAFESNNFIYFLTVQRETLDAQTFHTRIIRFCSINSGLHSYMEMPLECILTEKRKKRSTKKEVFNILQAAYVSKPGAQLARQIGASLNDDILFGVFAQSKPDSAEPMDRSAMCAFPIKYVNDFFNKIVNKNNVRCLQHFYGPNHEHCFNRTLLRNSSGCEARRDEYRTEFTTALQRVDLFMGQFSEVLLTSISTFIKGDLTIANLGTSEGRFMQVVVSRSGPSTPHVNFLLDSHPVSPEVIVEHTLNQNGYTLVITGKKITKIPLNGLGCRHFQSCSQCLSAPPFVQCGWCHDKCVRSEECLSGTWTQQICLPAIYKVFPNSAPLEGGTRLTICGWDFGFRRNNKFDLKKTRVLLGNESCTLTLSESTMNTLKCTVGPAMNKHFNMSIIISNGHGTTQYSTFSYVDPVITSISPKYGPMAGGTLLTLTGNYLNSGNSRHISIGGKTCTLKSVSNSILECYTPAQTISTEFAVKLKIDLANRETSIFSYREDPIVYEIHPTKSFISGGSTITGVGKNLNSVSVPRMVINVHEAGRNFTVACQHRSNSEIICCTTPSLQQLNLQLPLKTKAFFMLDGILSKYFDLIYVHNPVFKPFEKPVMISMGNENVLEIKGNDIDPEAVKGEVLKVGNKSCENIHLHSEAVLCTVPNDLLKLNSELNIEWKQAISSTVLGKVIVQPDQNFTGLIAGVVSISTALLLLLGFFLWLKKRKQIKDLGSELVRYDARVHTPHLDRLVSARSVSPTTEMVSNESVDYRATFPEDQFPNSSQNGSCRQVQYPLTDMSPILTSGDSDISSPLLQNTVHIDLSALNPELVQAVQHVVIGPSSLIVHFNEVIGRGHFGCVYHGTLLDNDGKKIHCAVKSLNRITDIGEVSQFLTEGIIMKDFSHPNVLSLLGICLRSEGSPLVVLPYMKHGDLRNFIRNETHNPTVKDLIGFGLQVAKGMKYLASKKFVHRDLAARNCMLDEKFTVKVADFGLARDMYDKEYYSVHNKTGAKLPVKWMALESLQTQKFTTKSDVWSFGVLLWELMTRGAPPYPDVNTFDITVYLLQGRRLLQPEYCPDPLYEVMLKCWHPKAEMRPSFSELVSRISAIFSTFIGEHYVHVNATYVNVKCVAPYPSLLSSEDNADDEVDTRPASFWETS
T39 sequence (P06239 whole entry): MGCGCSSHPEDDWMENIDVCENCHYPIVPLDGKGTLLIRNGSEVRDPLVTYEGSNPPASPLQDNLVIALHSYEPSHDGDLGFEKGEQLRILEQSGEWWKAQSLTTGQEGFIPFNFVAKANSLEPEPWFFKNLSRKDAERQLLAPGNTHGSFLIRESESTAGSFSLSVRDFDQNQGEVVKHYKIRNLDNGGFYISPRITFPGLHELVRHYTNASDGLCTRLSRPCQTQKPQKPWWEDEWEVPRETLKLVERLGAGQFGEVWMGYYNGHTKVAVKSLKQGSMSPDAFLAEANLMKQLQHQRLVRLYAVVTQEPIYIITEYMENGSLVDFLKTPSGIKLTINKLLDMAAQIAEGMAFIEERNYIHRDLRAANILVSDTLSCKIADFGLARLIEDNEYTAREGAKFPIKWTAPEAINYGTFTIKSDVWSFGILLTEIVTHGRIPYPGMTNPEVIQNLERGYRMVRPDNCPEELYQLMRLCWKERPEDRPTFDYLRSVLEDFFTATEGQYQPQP
T32 sequence (Q00536 whole entry): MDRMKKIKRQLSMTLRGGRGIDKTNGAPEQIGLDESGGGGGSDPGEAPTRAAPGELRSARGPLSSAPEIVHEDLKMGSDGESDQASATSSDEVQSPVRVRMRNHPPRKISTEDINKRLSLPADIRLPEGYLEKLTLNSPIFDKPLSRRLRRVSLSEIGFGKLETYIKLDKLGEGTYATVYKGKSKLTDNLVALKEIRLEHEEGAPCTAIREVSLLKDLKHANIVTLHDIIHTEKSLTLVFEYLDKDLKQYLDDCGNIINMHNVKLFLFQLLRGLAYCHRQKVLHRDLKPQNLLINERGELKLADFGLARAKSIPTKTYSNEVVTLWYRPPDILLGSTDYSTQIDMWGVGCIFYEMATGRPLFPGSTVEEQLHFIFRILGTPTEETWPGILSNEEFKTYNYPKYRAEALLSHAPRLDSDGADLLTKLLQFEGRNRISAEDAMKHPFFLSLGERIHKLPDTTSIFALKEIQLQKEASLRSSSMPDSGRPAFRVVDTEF
T29 sequence (Q8N4C8 whole entry): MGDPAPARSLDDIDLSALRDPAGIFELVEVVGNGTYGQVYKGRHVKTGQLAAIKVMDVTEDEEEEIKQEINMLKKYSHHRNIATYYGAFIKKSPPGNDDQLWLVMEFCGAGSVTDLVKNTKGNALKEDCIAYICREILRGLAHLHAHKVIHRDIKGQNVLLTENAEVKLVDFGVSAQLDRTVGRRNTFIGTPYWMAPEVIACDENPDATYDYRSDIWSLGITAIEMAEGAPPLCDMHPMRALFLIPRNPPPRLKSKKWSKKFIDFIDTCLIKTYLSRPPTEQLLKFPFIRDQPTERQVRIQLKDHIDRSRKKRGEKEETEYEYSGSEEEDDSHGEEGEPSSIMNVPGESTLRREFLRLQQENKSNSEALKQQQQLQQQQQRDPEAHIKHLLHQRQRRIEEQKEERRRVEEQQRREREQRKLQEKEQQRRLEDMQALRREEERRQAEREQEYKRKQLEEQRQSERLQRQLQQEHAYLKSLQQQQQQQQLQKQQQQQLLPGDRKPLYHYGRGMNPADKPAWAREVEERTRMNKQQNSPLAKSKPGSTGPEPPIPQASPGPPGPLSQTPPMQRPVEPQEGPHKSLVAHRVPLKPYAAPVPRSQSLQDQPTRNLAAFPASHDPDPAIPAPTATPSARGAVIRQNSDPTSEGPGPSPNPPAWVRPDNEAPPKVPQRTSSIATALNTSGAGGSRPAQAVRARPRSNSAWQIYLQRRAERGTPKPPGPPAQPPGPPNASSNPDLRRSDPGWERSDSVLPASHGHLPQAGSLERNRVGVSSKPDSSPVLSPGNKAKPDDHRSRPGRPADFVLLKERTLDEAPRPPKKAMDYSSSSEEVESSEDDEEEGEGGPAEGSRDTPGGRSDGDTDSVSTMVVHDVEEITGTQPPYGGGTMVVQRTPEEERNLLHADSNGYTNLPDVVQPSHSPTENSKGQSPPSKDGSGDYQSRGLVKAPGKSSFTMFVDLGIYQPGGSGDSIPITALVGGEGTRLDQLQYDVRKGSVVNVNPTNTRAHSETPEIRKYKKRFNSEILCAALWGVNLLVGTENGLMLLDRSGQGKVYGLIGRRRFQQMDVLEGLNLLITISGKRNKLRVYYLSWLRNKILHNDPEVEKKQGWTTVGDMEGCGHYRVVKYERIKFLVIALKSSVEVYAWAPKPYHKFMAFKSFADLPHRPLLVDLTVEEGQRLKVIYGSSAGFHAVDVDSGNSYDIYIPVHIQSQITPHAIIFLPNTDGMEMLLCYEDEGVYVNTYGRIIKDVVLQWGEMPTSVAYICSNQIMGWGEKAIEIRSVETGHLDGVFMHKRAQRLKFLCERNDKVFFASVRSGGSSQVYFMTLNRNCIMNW
T18 sequence (Q13177 whole entry): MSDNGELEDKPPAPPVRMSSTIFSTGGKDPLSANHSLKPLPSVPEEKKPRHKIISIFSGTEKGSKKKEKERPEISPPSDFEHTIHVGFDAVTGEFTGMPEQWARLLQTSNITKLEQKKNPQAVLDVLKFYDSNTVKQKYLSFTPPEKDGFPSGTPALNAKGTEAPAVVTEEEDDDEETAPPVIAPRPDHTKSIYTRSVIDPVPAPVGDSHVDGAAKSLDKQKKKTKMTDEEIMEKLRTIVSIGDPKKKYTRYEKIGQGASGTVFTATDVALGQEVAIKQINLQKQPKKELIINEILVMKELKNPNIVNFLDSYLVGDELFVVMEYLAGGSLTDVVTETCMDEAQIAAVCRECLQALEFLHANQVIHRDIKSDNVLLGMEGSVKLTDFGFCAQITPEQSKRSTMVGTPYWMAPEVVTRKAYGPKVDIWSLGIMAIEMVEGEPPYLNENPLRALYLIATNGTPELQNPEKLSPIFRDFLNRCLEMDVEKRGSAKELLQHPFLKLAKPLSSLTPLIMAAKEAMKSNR
T15 sequence (P43403 whole entry): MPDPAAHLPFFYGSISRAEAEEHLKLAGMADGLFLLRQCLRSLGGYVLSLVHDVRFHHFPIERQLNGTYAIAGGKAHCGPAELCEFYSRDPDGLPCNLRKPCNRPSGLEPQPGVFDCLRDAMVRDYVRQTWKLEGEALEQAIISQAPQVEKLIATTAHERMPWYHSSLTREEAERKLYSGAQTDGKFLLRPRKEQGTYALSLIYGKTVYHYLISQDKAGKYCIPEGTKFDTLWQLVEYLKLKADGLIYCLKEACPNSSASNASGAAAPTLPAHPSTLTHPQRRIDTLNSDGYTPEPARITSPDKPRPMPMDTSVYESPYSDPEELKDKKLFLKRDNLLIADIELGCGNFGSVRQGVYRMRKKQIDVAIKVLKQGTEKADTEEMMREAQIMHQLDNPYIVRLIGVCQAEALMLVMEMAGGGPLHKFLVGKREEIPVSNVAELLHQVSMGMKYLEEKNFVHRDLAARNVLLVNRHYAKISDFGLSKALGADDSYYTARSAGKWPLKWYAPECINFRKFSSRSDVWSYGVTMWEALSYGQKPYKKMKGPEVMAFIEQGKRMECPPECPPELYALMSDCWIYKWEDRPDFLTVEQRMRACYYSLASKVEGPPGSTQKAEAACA

For `O=c1c2cc(-c3ccnc4ccccc34)ccc2ncn1-c1ccc(N2CCOCC2)cc1` [compound 16, 3-(4-Morpholinophenyl)-6-(quinolin-4-yl)quinazolin-4(3H)-one], the remaining binding at 1 µM (TSSK1B) was 100%, the remaining binding at 1 µM (SIK2) was 96% and the remaining binding at 1 µM (AURKB) was 97%. For the same compound, the remaining binding at 1 µM (MAP3K4) was 100%, the remaining binding at 1 µM (ERBB4) was 100% and the remaining binding at 1 µM (JNK1) was 100%. The remaining binding at 1 µM (PIK3CA) was 100%, the remaining binding at 1 µM (ERK1) was 97% and the remaining binding at 1 µM (AKT2) was 86%. It also gave a remaining binding at 1 µM (BMPR1A (ALK3)) of 77%, a remaining binding at 1 µM (FGFR3) of 100% and a remaining binding at 1 µM (EGFR) of 71%. It also gave a remaining binding at 1 µM (MLK1) of 97%, a remaining binding at 1 µM (MEK2) of 85% and a remaining binding at 1 µM (ZAP70) of 100%. The remaining binding at 1 µM (KIT(V559D,T670I)) was 100%, the remaining binding at 1 µM (CHEK1) was 100% and the remaining binding at 1 µM (PAK2) was 54%. For the same compound, the remaining binding at 1 µM (PIK3C2B) was 100%, the remaining binding at 1 µM (DCAMKL1) was 92% and the remaining binding at 1 µM (KIT(D816H)) was 100%. For the same compound, the remaining binding at 1 µM (PLK1) was 86%, the remaining binding at 1 µM (IKKEalpha) was 86% and the remaining binding at 1 µM (MET) was 80%. The remaining binding at 1 µM (PLK4) was 100%, the remaining binding at 1 µM (FYN) was 100% and the remaining binding at 1 µM (AXL) was 96%. For the same compound, the remaining binding at 1 µM (JNK3) was 98%, the remaining binding at 1 µM (MINK) was 51% and the remaining binding at 1 µM (DYRK1B) was 90%. The remaining binding at 1 µM [1] was 100%, the remaining binding at 1 µM (PCTK1) was 87% and the remaining binding at 1 µM (CDK2) was 95%. It also gave a remaining binding at 1 µM (NEK7) of 97%, a remaining binding at 1 µM (INSR) of 100% and a remaining binding at 1 µM (PDPK1) of 84%. It also gave a remaining binding at 1 µM (IKKEbeta) of 84%, a remaining binding at 1 µM (SRC) of 88% and a remaining binding at 1 µM (LCK) of 98%.
